# Source: PubChem BioAssay (NCI)
# Values joined by “and” are separate entries in the source; they are usually repeats but may differ in a detail not shown here. Equal values may be shown once.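 Protocol summary: plate cells (96-well), add compound at 5 concentrations, incubate 48 h, interpolate endpoints linearly. Abbreviation: GI50, concentration required for 50% inhibition of growth. The concentration for full growth arrest is given as TGI.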
# Experiments:
# Assay in all cases: DTP human tumour cell line panel, 48 h
# HCT-116 colon = system: HCT-116 colon
# KM12 colon = system: KM12 colon
# LOX IMVI melanoma = system: LOX IMVI melanoma
# M14 melanoma = system: M14 melanoma
# NCI-H522 lung = system: NCI-H522 lung
# RXF 393 renal = system: RXF 393 renal
# SK-MEL-28 melanoma = system: SK-MEL-28 melanoma
# SN12C renal = system: SN12C renal
# UACC-62 melanoma = system: UACC-62 melanoma
# SK-MEL-2 melanoma = system: SK-MEL-2 melanoma
SMILES,TGI (HCT-116 colon),TGI (KM12 colon) [µM],TGI (LOX IMVI melanoma),TGI (M14 melanoma),TGI (NCI-H522 lung) [µM],TGI (RXF 393 renal) [µM],TGI (SK-MEL-28 melanoma) [µM],TGI (SN12C renal),TGI (UACC-62 melanoma),TGI (SK-MEL-2 melanoma),GI50 (HCT-116 colon) [µM],GI50 (LOX IMVI melanoma) [µM],GI50 (M14 melanoma),GI50 (NCI-H522 lung) [µM],GI50 (SK-MEL-28 melanoma) [µM],GI50 (SN12C renal),GI50 (UACC-62 melanoma) [µM],GI50 (KM12 colon) [µM],GI50 (RXF 393 renal) [µM]
CCOC(=O)c1cc2c3c(c(O)c(OC)c2s1)N(C(=O)c1cc2c4c(c(O)c(OC)c2s1)N(C(C)=O)CC4)CC3,> 100 µM,> 100,> 100 µM,> 100 µM,> 100,> 100,> 100,> 100 µM,> 100 µM,,,,,,,,,,
CC1(C)CC2C(=O)c3ccccc3NC2c2ccccc21 (configuration not stated),> 100 µM,> 81.3,> 100 µM,> 100 µM,4.49,8.58,> 100,> 100 µM,> 100 µM,,,,,,,,,,
CCOC(=O)C(NC(=O)c1nc[nH]c1[N+](=O)[O-])C(C)C (configuration not stated),> 100 µM,> 100,> 100 µM,> 100 µM,> 100,,> 100,> 100 µM,> 100 µM,> 100 µM,,,,,,,,,
Cc1c(C(=O)O)oc2ccc([N+](=O)[O-])cc12,> 100 µM,> 100,> 100 µM,> 100 µM,> 100,,> 100,> 100 µM,> 100 µM,> 100 µM,,,,,,,,,
CCC1=CC2CN(C1)Cc1c([nH]c3ccccc13)[C@@](C(=O)OC)(c1cc3c(cc1OC)N(C)[C@H]1[C@@](O)(C(=O)OC)[C@H](OC(C)=O)[C@]4(CC)C=CCN5CC[C@]31[C@@H]54)C2 (some centres not stated),50 µM and > 100 µM,0.372,50 µM and > 100 µM,5.82 µM and 0.913 µM,1.3,,> 100,50 µM and > 100 µM,50 µM and > 100 µM,14.9 µM and > 100 µM,< 0.005,< 0.005,0.00953 µM and 0.0245 µM,< 0.005,0.0221,0.0118 µM and 0.0186 µM,0.00589,,
CCOC(=O)NC(=O)c1cn(CCN2CCN(C(=O)CCCCCCCCCCC(=O)N3CCN(CCn4cc(C(=O)NC(=O)OCC)c(=O)[nH]c4=O)CC3)CC2)c(=O)[nH]c1=O,> 100 µM,> 100,> 100 µM,> 100 µM,> 100,,> 100,> 100 µM,,,,,,,,,,,
N/N=C1\C(=O)N(CCc2ccccc2)C(=O)C1C(=O)NCCc1ccccc1 (configuration not stated),> 100 µM,> 100,> 100 µM,> 100 µM,> 100,,> 100,> 100 µM,> 100 µM,> 100 µM,,,,,,,,,
O=C1CCCCN1CCCCC#Cc1cccc(C#Cc2cccnc2)c1,18.4 µM,> 100,25.9 µM,34.7 µM,63.7,,> 100,28.5 µM,16.9 µM,,4.67,8.55,14.3 µM,19,38.7,14.1 µM,4.82,20.4,
Cc1ccccc1C(=O)N1CCN(C(=O)c2ccccc2C)CC1,> 100 µM,> 100,> 100 µM,> 100 µM,> 100,> 100,> 100,> 100 µM,> 100 µM,,,,,,,,,,
Cn1c2c(c3ccccc31)CCN(CCN1CCN(c3cccc(Cl)c3)CC1)C2=O,> 100 µM,,> 100 µM,> 100 µM,> 100,> 100,> 100,> 100 µM,> 100 µM,,,,,,,,,,
CSC(=NCCc1c[nH]c2ccccc12)NC#N,> 100 µM,> 100,> 100 µM,> 100 µM,,> 100,> 100,> 100 µM,> 100 µM,,,,,,,,,,
O=C(N[C@@H](C[Se][Se]C[C@H](NC(=O)c1ccc(Br)cc1F)C(=O)O)C(=O)O)c1ccc(Br)cc1F,> 100 µM,> 100,> 100 µM,> 100 µM,> 100,> 100,> 100,> 100 µM,> 100 µM,,> 100,> 100,> 100 µM,> 100,> 100,> 100 µM,> 100,> 100,> 100
C=C1C(O)CC[C@]2(C)C1C1OC(C)(C)O[C@]13CC(=O)C(C)=C([C@H]1OC(C)(C)OC12)C3(C)C (some centres not stated),> 100 µM,> 100,> 100 µM,,,> 100,> 100,> 100 µM,> 100 µM,,,,,,,,,,
CSc1nnc(COc2ccc(Cl)cc2)o1,> 100 µM,> 100,> 100 µM,> 100 µM,> 100,> 100,> 100,> 100 µM,> 100 µM,,,,,,,,,,
CCCCCCCCCCCCCCCC[N+]1(C)CCOCC1,3.87 µM,,,2.98 µM,5.07,,7.69,8.92 µM,3.83 µM,,1.59,,1.32 µM,2.09,2.42,2.6 µM,1.61,,
CCNC(=O)COc1ccc(Cl)cc1Cl,> 100 µM,> 100,,> 100 µM,> 100,,> 100,> 100 µM,,> 100 µM,,,,,,,,,
